Data reported in patent EP2468279A1, “Prokineticin 1 receptor agonists and their uses” (Université de Strasbourg, priority 2010, dated 2012).

Experiments:
Type in all cases: cell-based
[1] = tested on: endothelial cells (H5V); assay: Induction of in vitro angiogenesis: tube formation on Growth Factor Reduced Matrigel; conditions: serum free medium, 24h at 37°C, number of branching points, Figures 3 and 4
Protocol: Coronary endothelial cells (H5V cells) were maintained in DMEM supplemented with 10% heat inactivated Fetal Calf Serum (FCS), glutamine (1mM) under 5% CO2 at 37°C.
In order to evaluate the potential angiogenic activity of the PKR1 agonists, the test of Growth Factor Reduced Matrigel (GFR Matrigel) 24 well plate was performed. Matrigel leads to the differentiation of many cell types and induces the formation and organization of endothelial cells into capillary tubules. Twenty-four-well culture plates were coated with Matrigel and endothelial cells (H5V) were trypsin-harvested and seeded onto the coated plates at 10^5 cells per well in the serum free assay medium with PKR1 agonists, IS1 and prokineticin-2, and incubated at 37°C for 24h. Tube formation as two dimensional branched structures were observed using an inverted phase contrast microscope (Zeiss), and the number of branching points were quantified in per well from each sample. Each experiment was repeated at least three times. Images were captured at a magnification of X10 with a digital microscope camera system (Urayama K et al., 2007).

[2] = biological target: T1, PKR1 (Homo sapiens, UniProt Q8TCW9); assay: Activation of PKR1 signalling pathway: intracellular calcium measured with Fluo 4-AM in CHO-K1 cells infected with adenovirus carrying PKR1 cDNA; conditions: CHO-K1 cells expressing PKR1, Fluo 4-AM fluorescence; Figure 5
T1 construct: expressed in transfected cells; host or cells: CHO-K1 cells, transfected with Lipofectamine2000
T1 sequence (Q8TCW9 whole entry): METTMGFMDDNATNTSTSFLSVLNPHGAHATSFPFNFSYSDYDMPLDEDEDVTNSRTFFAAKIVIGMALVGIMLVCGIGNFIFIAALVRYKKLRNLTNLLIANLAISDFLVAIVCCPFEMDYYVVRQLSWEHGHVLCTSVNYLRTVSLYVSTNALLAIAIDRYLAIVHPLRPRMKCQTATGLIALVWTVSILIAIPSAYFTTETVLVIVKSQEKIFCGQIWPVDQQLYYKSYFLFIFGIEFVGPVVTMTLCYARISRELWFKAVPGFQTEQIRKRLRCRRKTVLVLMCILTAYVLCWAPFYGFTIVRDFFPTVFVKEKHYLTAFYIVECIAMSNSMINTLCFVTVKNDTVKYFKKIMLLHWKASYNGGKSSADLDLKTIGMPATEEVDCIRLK
Protocol: CHO-K1 (Chinese Hamster Ovary) cells were infected with a adenovirus carrying PKR1 cDNA. Cells were then stimulated, 48h after infection, with or without IS1 agonists, at 37°C. Calcium imaging was conducted essentially as previously described (Horinouchi et al., 2007) In brief, Intracellular free calcium [Ca^2+]i was measured with the fluorescent Ca^2+ indicator dye Fluo 4-AM, the membrane-permeant acetoxymethyl ester form of Fluo 4 (Invitrogen). Changes in [Ca^2+]i were determined from variations in the fluorescence intensity of Fluo 4-AM. Briefly, trypsinized CHO-K1-PKR1 cells were seeded onto glass bottom culture dishes (MatTek, MA, USA) for 24 h. […] The fluorescence in the cells was excited at a wavelength of 488 nm and a series of images (total exposure time: 300 s) were acquired at 0.5s intervals at emission wavelength 518 nm. Data are presented as the fluorescence intensity of 3 randomly chosen cells within a randomly selected 40 × field. To evaluate the effect of IS1 compound on [Ca^2+]i in CHO-K-PKR1, the maximum change in fluorescence intensity upon addition of IS1 was measured and normalized to the baseline fluorescence obtained before IS 1 addition.

[3] = biological target: T1, PKR1; assay: PKR1 internalization in CHO-K1 cells transfected with GFP-PKR1, by confocal microscopy; conditions: Figure 6
Protocol: The capacity of agonist compounds to induce internalization of PKR1 was assessed. Therefore, CHO-K1 cells transfected with a plasmid encoding GFP-PKR1 (Green Fluorescent Protein-PKR1), in the presence of Lipofectamine2000 (Invitrogen), were used. Cells were stimulated, 48h after transfection, with or without agonist compound, at 37°C. GFP is a fluorescent protein fusion (26.9 kDa) which has a major excitation peak at a wavelength of 396 nm and a minor one at 472 nm. Its emission peak is at 504 nm which is in the lower green portion of the visible spectrum. Fluorescence allowed tracking the localization of PKR1 after stimulation by the agonist (membrane or subcellular). Cells were seeded in glass-bottom coated with polyL-lysine and receptor studies were performed in the presence of various PKR1-ligands. Samples were observed under a Leica confocal microscope (SP2 AOBS MP) with objective 63× at 37°C. Images were automatically recorded during 20 min, with increasing time intervals to avoid bleaching effects because of repetitive scanning. Reconstituted videos contained 42 images and lasted 2 second.

## O=C(NCc1cccnc1)C(=Cc1ccco1)NC(=O)c1ccccc1 [IS1]
[1]
  in vitro angiogenesis (tube-like formation of the endothelial cells on Matrigel): Induction of in vitro angiogenesis
[2]
  activation of the PKR1 signalling pathway (intracellular calcium release): able to activate the PKR1 signalling pathway
[3]; CHO cells GFP-PKR1, 48h after transfection, 37°C
  PKR1 internalization: induces its internalization
[3]; CHO cells GFP-PKR1
  specificity of interaction with PKR1: specifically interacts with PKR1
